# According to patent publication EP0291321A2, “Element and method for determination of creatinine or creatine” (EASTMAN KODAK COMPANY (a New Jersey corporation), priority 1987, dated 1988):
# Molecular target: T1, sarcosine oxidase (Bacillus sp., UniProt P40859)
# T1 sequence (P40859 1-390): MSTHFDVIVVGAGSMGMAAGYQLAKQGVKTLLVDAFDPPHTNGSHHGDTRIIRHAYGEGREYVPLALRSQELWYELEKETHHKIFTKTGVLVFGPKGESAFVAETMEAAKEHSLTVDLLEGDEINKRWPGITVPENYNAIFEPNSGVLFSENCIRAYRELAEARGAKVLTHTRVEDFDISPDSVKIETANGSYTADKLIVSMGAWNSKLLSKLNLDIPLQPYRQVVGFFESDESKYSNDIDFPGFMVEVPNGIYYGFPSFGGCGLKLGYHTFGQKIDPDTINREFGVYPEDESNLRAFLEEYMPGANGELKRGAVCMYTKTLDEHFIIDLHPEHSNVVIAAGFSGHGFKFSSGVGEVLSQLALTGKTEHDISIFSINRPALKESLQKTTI
# Experiment: sarcosine oxidase activity on substrate at various pH (rate of change in absorbance per minute)
# Assay type: biochemical
# Details: for Ratio (B/A): rate with N-ethyl glycine divided by rate with sarcosine
# Method: Separate assays at various pH were conducted to determine the rate of change in absorbance per minute (ΔA/min) for sarcosine oxidase activity on its substrate sarcosine, and on N-ethyl glycine. The assay is based on the following reactions. [drawing 1]
rate of change in absorbance per minute (ΔA/min) for sarcosine oxidase activity (pH 6.5),Ratio (B/A) (pH 6.5),rate of change in absorbance per minute (ΔA/min) for sarcosine oxidase activity (pH 7.0),Ratio (B/A) (pH 7.0),rate of change in absorbance per minute (ΔA/min) for sarcosine oxidase activity (pH 7.5),Ratio (B/A) (pH 7.5),Structure (SMILES)
0.017 ΔA/min,0.011,0.053 ΔA/min,0.024,0.134 ΔA/min,0.048,"CCNCC(=O)O [N-Ethyl Glycine, N-ethyl glycine]"
1.56 ΔA/min,–,2.20 ΔA/min,–,2.76 ΔA/min,–,"CNCC(=O)O [Sarcosine, sarcosine]"
